Data reported in ChEMBL document CHEMBL2401725, “Synthesis of new chromeno-annulated cis-fused pyrano[4,3-c]isoxazole derivatives via intramolecular nitrone cycloaddition and their cytotoxicity evaluation” (Bioorg Med Chem Lett, 2013).

Columns and labels:
Assay type in all cases: functional, cell-based
A549 = test: Cytotoxicity against human A549 cells by MTT assay
MCF7 = test: Cytotoxicity against human MCF7 cells by MTT assay
HeLa = test: Cytotoxicity against human HeLa cells by MTT assay
MDA-MB-231 = test: Cytotoxicity against human MDA-MB-231 cells by MTT assay

Row | Structure (SMILES) | IC50 (A549) [µM] | IC50 (MCF7) [µM] | IC50 (HeLa) [µM] | IC50 (MDA-MB-231) [µM]
1 | COc1ccc(CN2OC(C)(C)[C@H]3COc4ccc5c(=O)c(C)coc5c4[C@H]32)cc1 | 29.4 | 7.38 | 6.54 | > 100
2 | COc1cccc2c1C(=O)c1c(O)c3c(c(O)c1C2=O)C[C@@](O)(C(=O)CO)C[C@@H]3O[C@H]1C[C@H](N)[C@H](O)[C@H](C)O1 [DOXORUBICIN] | 1.21 | 1.05 | 0.451 | 0.501
3 | Cc1ccc(CN2OC(C)(C)[C@H]3COc4ccc5c(=O)c(C)c(C)oc5c4[C@H]32)cc1 | 8.92 | 26.5 | 18.2 | 5.64
4 | Cc1oc2c3c(ccc2c(=O)c1C)OC[C@H]1[C@@H]3N(Cc2ccc(F)cc2)OC1(C)C | 12.8 | 10.1 | 9.54 | 7.9
5 | Cc1oc2c3c(ccc2c(=O)c1C)OC[C@H]1[C@@H]3N(Cc2ccccc2)OC1(C)C | 17.9 | 5.78 | > 100 | 14.5
6 | Cc1oc2c3c(ccc2c(=O)c1C)OC[C@H]1[C@@H]3N(Cc2ccc(C(C)C)cc2)OC1(C)C | > 100 | 7.96 | > 100 | 6.25
7 | Cc1oc2c3c(ccc2c(=O)c1C)OC[C@H]1[C@@H]3N(C2CCCCC2)OC1(C)C | 8.96 | > 100 | > 100 | 7.56
8 | Cc1coc2c3c(ccc2c1=O)OC[C@H]1[C@@H]3N(C2CCCCC2)OC1(C)C | 0.194 | 22.7 | 17.5 | 17.4
9 | COc1ccc(CN2OC(C)(C)[C@H]3COc4ccc5c(=O)c(C)c(C)oc5c4[C@H]32)cc1 | 11.2 | 5.59 | > 100 | 7.81
10 | COc1ccc(CN2OC(C)(C)[C@H]3COc4ccc5c(=O)c(-c6ccccc6)c(C)oc5c4[C@H]32)cc1 | > 100 | > 100 | > 100 | > 100
11 | Cc1coc2c3c(ccc2c1=O)OC[C@H]1[C@@H]3N(Cc2ccccc2)OC1(C)C | > 100 | > 100 | 6.61 | > 100
12 | Cc1ccc(CN2OC(C)(C)[C@H]3COc4ccc5c(=O)c(C)coc5c4[C@H]32)cc1 | > 100 | 5.3 | > 100 | > 100
